pIC50: −log10 of the molar value. Like-named read-outs stand apart in the source and are kept apart here.
Biological target: full length NS3/4a (Hepatitis C virus genotype 1b (isolate BK) (HCV), UniProt P26663)
Experiment: NS3 Protease Assay (Example A), FRET-based
Format: biochemical
Details: for IC50: HCV NS3 protease assay, full length NS3/4a, read-out: Assay A IC50 (μM) average; for pIC50: read-out: IC50 against the protease activity of the full length NS3/4a
Method: The HCV NS3 protease functions have been extensively studied and are considered as potential targets for antiviral therapy: see for example the many references listed in the introductory section of this application. Therefore, the activity of the compounds of the invention as anti-HCV agents was assessed using a full length HCV NS3 protease.
The protease activity of the full length NS3/4a was measured using a FRET-based assay utilizing a peptide substrate derived from the NS4A/B cleavage site (Anaspec) and labelled at one end with a quencher (QXL520) and at the other with a fluorophore (5-FAMsp). NS3/4a (produced in-house by literature methods) was incubated with test compounds and peptide substrate in 50 mM Tris pH8, 20 mM DTT, 1% CHAPS, 10% glycerol and 5% DMSO. The reaction was followed by monitoring the change in fluorescence on a Molecular Devices Gemini plate reader for 30 minutes at room temperature. Initial rates were calculated from the progress curves using SoftMax Pro (Molecular Devices). IC50 values were then calculated from replicate curves using Prism GraphPad software.

[1] = stated as IC50 less than 30 μM or at least 40% inhibition at a concentration of 100 μM

Chain of full length NS3/4a (P26663 1027-1657): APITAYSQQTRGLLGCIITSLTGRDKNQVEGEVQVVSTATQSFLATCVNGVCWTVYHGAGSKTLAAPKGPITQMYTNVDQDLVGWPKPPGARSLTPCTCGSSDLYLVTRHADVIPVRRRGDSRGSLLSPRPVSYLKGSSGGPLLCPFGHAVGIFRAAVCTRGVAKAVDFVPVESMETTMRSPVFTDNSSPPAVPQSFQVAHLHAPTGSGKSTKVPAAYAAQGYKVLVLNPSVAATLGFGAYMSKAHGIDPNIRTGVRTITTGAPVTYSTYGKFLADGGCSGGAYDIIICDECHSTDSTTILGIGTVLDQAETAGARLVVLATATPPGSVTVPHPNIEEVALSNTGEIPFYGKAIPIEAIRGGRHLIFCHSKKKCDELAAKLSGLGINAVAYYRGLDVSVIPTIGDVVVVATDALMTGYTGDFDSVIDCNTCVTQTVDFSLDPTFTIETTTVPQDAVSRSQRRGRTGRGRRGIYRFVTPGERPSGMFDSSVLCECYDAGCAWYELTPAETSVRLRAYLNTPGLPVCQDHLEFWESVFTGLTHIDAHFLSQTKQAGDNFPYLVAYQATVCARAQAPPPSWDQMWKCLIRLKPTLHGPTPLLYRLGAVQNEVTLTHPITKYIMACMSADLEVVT

SMILES	IC50	pIC50	other results
CC[C@@H](NCc1cn[nH]c1)c1ccc(Cl)c(C(=O)c2cccnc2)c1F [Example 299, [(1R)-1-{4-chloro-2-fluoro-3-[(pyridin-3-yl)carbonyl]phenyl}propyl] (1H-pyrazol-4-ylmethyl)amine]	–	–	inhibition at 10 µM: 32%
CC[C@@H](N)c1ccc(Cl)c(C(=O)c2cc[n+]([O-])cc2)c1F [Example 42, [3-((R)-1-Amino-propyl)-6-chloro-2-fluoro-phenyl]-(1-oxy-pyridin-4-yl)-methanone]	0.53 µM	> 6.00	–
CC[C@@H](N[C@@H](C)CC(N)=O)c1ccc(OC)c(C(=O)c2ccc(F)cc2)c1F [Example 200, (3S)-3-{[(1R)-1-{2-fluoro-3-[(4-fluorophenyl)carbonyl]-4-methoxyphenyl}propyl]amino} butanamide]	0.078 µM	> 6.00	–
C=CC[C@@H](N[C@H](C)CC(N)=O)c1ccc(Cl)c(C(=O)c2ccc(N)nc2)c1F [Example 257, (3R)-3-{[(1R)-1-{3-[(6-aminopyridin-3-yl)carbonyl]-4-chloro-2-fluorophenyl}but-3-en-1-yl]amino}butanamide]	2 µM	5.30 to 6.00	–
CC[C@@H](N[C@H](C)CC(=O)NCCN)c1ccc(Cl)c(C(=O)c2ccc(N)nc2)c1F [Example 241, (3R)-N-(2-aminoethyl)-3-{[(1R)-1-{3-[(6-aminopyridin-3-yl)carbonyl]-4-chloro-2-fluorophenyl}propyl]amino}-butanamide]	0.036 µM	–	–
CC[C@H](NC(=N)N)c1ccc(Cl)c(C(=O)c2cccnc2)c1F [Example 302]	1.3 µM	5.30 to 6.00	–
CC[C@@H](N)c1ccc(Cl)c(C(=O)c2ccc(N)nn2)c1F [Example 197, 6-({3-[(1R)-1-Aminopropyl]-6-chloro-2-fluorophenyl}carbonyl)pyridazin-3-amine]	–	–	inhibition at 10 µM: 45%; pIC50 [1]: > 4.52
C[C@@H](CC(N)=O)N[C@@H](c1ccc(Cl)c(C(=O)c2cnc(N)cn2)c1F)C1CC1 [Example 194, (3S)-3-{[(R)-{3-[(5-aminopyrazin-2-yl)carbonyl]-4-chloro-2-fluorophenyl}(cyclo-propyl)methyl]amino}-butanamide]	–	–	inhibition at 0.3 µM: 28%
C[C@H](CC(N)=O)N[C@@H](c1ccc(Cl)c(C(=O)c2ccc(N)c(C#N)c2)c1F)C1CC1 [Example 190, (3R)-3-{[(R)-{3-[(4-amino-3-cyanophenyl)carbonyl]-4-chloro-2-fluorophenyl}(cyclopropyl)methyl]amino}butanamide]	0.37 µM	–	pIC50 [1]: > 4.52
C[C@H](CC(N)=O)N[C@@H](c1ccc(Cl)c(C(=O)c2ccncc2)c1F)C1CC1 [Example 130, (3R)-3-{[(R)-{4-chloro-2-fluoro-3-[(pyridin-4-yl)carbonyl]phenyl}-(cyclopropyl)methyl]-amino}butanamide]	1.5 µM	5.30 to 6.00	–
CC[C@H](N)c1ccc(Cl)c(C(=O)c2ccccc2)c1F [Example 6, (1S)-1-(3-benzoyl-4-chloro-2-fluorophenyl)propan-1-amine]	–	> 6.00	inhibition at 0.3 µM: 80%
CC[C@@H](N)c1ccc(Cl)c(C(=O)c2ccc(N)cn2)c1F [Example 5, 6-({3-[(1R)-1-aminopropyl]-6-chloro-2-fluorophenyl}carbonyl)-pyridin-3-amine]	–	5.30 to 6.00	inhibition at 3 µM: 55%
CC[C@@H](N[C@H]1CCOC1)c1ccc(Cl)c(C(=O)c2cccnc2)c1F [Example 293, (3S)-N-[(1R)-1-{4-chloro-2-fluoro-3-[(pyridin-3-yl)carbonyl]phenyl}propyl] oxolan-3-amine]	–	–	inhibition at 10 µM: 11%
C[C@@H](CC(N)=O)N[C@@H](c1ccc(Cl)c(C(=O)c2ccc(C#N)cc2)c1F)C1CC1 [Example 129, (3S)-3-{[(R)-{4-chloro-3-[(4-cyanophenyl)-carbonyl]-2-fluorophenyl}(cyclo-propyl)methyl]amino}-butanamide]	–	–	inhibition at 0.03 µM (@ 0.03 uM): 36%
CC[C@@H](N[C@H](C)CC(N)=O)c1ccc(Cl)c(C(=O)c2ccc(OC)c(C#N)c2)c1F [Example 217, (3R)-3-{[(1R)-1-{4-chloro-3-[(3-cyano-4-methoxyphenyl)carbonyl]-2-fluorophenyl}propyl]amino}butanamide]	–	–	inhibition at 30 µM (@ 30 uM): 38%
CC[C@@H](N[C@H](C)CC(N)=O)c1ccc(Cl)c(C(=O)c2ccc(N)nc2)c1F [Example 82, (3R)-3-{[(1R)-1-{3-[(6-aminopyridin-3-yl)carbonyl]-4-chloro-2-fluorophenyl}propyl]-amino}butanamide]	0.83 µM	–	–

SMILES	IC50	pIC50	other results
CC[C@@H](N[C@@H](C)CC(N)=O)c1ccc(Cl)c(C(=O)c2ccc(N(C)C)nc2)c1F [Example 136, (3S)-3-{[(1R)-1-(4-chloro-3-{[6-(dimethylamino)pyridin-3-yl]carbonyl}-2-fluorophenyl)propyl]-amino}butanamide]	0.83 µM	> 6.00	–
CC[C@@H](N[C@H](C)CC(N)=O)c1ccc(Cl)c(C(=O)c2cccc(CO)c2)c1F [Example 189, (3R)-3-{[(1R)-1-(4-chloro-2-fluoro-3-{[3-(hydroxymethyl)-phenyl]-carbonyl}phenyl)-propyl]amino}butanamide]	0.54 µM	–	–
CC[C@H](NC(=O)C1=CCCNC1)c1ccc(Cl)c(C(=O)c2cccnc2)c1F [Example 287, N-[(1S)-1-{4-chloro-2-fluoro-3-[(pyridin-3-yl)carbonyl]phenyl}propyl]-1,2,5,6-tetrahydropyridine-3-carboxamide]	0.14 µM	> 6.00	–
CC[C@@H](N[C@H](C)CC(N)=O)c1ccc(Cl)c(C(=O)c2ccc(F)cc2)c1F [Example 98, (3R)-3-{[(1R)-1-{4-chloro-2-fluoro-3-[(4-fluorophenyl)-carbonyl]phenyl}propyl]amino}butanamide]	0.6 µM	–	–
CC[C@@H](N)c1ccc(Cl)c(C(=O)c2ccc(Cl)nc2)c1F [Example 29, (1R)-1-{4-chloro-3-[(6-chloropyridin-3-yl)carbonyl]-2-fluorophenyl}propan-1-amine]	0.5 µM	> 6.00	–
CCC[C@@H](N)c1ccc(Cl)c(C(=O)c2ccc(N)nc2)c1F [Example 66, 5-({3-[(1R)-1-aminobutyl]-6-chloro-2-fluorophenyl}carbonyl)pyridin-2-amine]	0.2 µM	–	–
CC[C@@H](N[C@H](C)CC(N)=O)c1ccc(Cl)c(C(=O)c2ccc(O)cc2)c1F [Example 231, (3R)-3-{[(1R)-1-{4-chloro-2-fluoro-3-[(4-hydroxyphenyl)carbonyl]phenyl}propyl]amino}butanamide]	2.1 µM	5.30 to 6.00	–
C[C@H](CC(N)=O)N[C@@H](c1ccc(Cl)c(C(=O)c2ccc(C#N)cc2)c1F)C1CC1 [Example 128, (3R)-3-{[(R)-{4-chloro-3-[(4-cyanophenyl)-carbonyl]-2-fluorophenyl}(cyclo-propyl)methyl]amino}-butanamide]	0.28 µM	> 6.00	–
CC[C@@H](N[C@H](C)CC(=O)NCCO)c1ccc(Cl)c(C(=O)c2ccc(N)nc2)c1F [Example 243, (3R)-3-{[(1R)-1-{3-[(6-aminopyridin-3-yl)carbonyl]-4-chloro-2-fluorophenyl}propyl]amino}-N-(2-hydroxyethyl)butanamide]	0.43 µM	–	–
C[C@H](CC(N)=O)N[C@@H](c1ccc(Cl)c(C(=O)c2ccc(N)nc2)c1F)C1CC1 [Example 155, (3R)-3-{[(R)-{3-[(6-aminopyridin-3-yl)carbonyl]-4-chloro-2-fluorophenyl}(cyclo-propyl)methyl]amino}-butanamide]	1 µM	5.30 to 6.00	–
CC[C@@H](N[C@H](C)CC(N)=O)c1ccc(Cl)c(C(=O)c2cccnc2)c1F [Example 94, (3R)-3-{[(1R)-1-{4-chloro-2-fluoro-3-[(pyridin-3-yl)carbonyl]phenyl}propyl]amino}butanamide]	1 µM	5.30 to 6.00	–
N#Cc1ccc(C(=O)c2c(Cl)ccc([C@H](N)C3CC3)c2F)nc1 [Example 62, 6-({3-[(R)-amino(cyclopropyl)methyl]-6-chloro-2-fluorophenyl}carbonyl)pyridine-3-carbonitrile]	0.32 µM	> 6.00	–
CC[C@@H](N)c1ccc(Cl)c(C(=O)c2ccc(-n3cc(CO)cn3)nc2)c1F [Example 46, {1-[5-({3-[(1R)-1-aminopropyl]-6-chloro-2-fluorophenyl}carbonyl)pyridin-2-yl]-1H-pyrazol-4-yl}methanol]	–	–	inhibition at 10 µM: 64%; pIC50 [1]: > 4.52
CCC(NC1CCCC1C(N)=O)c1ccc(Cl)c(C(=O)c2ccc(N)nc2)c1F (single isomer, unassigned) [Example 126, 2-{[1-{3-[(6-aminopyridin-3-yl)carbonyl]-4-chloro-2-fluorophenyl}propyl]amino} cyclopentane-1-carboxamide]	0.12 µM	> 6.00	–
C[C@H](CC(N)=O)N[C@@H](c1ccc(Cl)c(C(=O)c2cccnc2)c1F)C1CC1 [Example 118, (3R)-3-{[(R)-{4-chloro-2-fluoro-3-[(pyridin-3-yl)carbonyl]phenyl}(cyclopropyl)methyl]amino}-butanamide]	–	–	inhibition at 3 µM: 41%; pIC50 [1]: > 4.52
CC[C@@H](N)c1ccc(Cl)c(C(=O)c2cnc(NC)cn2)c1F [Example 57, 5-({3-[(1R)-1-aminopropyl]-6-chloro-2-fluorophenyl}carbonyl)-N-methylpyrazin-2-amine]	4.6 µM	5.30 to 6.00	–

— patent publication US9145354B2, “Pharmaceutical compounds” (priority 2011, dated 2015)
